Measured values taken from patent US7262185B2, “Benzazepine derivative, process for producing the same, and use” (Takeda Chemical Industries Ltd., priority 2001, dated 2007).

target: T1, human CCR5 chemokine receptor (Homo sapiens, UniProt P51681); test: Inhibition of [125I]-RANTES binding to CCR5/CHO cells (CCR5 antagonistic activity); settings: 40 min, test compound 1 μM, [125I]-RANTES as ligand, room temperature, read-out: Binding Inhibitory Ratio (%)
T1 construct: expressed in transfected cells
Method: Cloning of CCR5 gene from human spleen cDNA was conducted using the PCR method. Using spleen cDNA (0.5 ng) (TOYOBO CO., LTD, QUICK-Clone cDNA) as a template, PCR was performed in a DNA Thermal Cycler 480 (manufactured by Perkin Elmer) (reaction conditions: 30 cycles of 95° C. for 1 minute, 60° C. for 1 minute, and 75° C. for 5 minutes) by adding primer sets, SEQ. ID NO: 1 (sequence length: 34; sequence type: nucleic acid; chain number: single strand; topology: linear; kind of sequence: other nucleic acid synthetic. DNA) described in Experimental. Example (1) of WO 99/32100, and SEQ ID NO: 2 (sequence length: 34; sequence type: nucleic acid; chain number: single strand; topology: linear; kind of sequence: other nucleic acid synthetic. DNA) described in Experimental. Example (1) of WO 99/32100, (25 pmol, respectively), which were prepared referring to the nucleotide sequence of CCR5 gene, as reported by Samson et al. (Biochemistry 35 (11), 3362-3367 (1996)) and by using TaKaRa. EX Taq (Takara Shuzo). The resultant. PCR product was subjected to agarose gel electrophoresis to collect an approximately 1.0 kb. DNA fragment, which was subjected to an Original TA Cloning Kit (Funakoshi Co., Ltd.) to carry out cloning of CCR5 gene.
The plasmid obtained above was digested with restriction enzymes XbaI (Takara Shuzo Co., Ltd.) and BamHI (Takara Shuzo Co., Ltd.), and then subjected to agarose gel electrophoresis to collect DNA fragment of about 1.0 kb. The DNA fragment and plasmid pcDNA 3.1 (Funakoshi. Co., Ltd.) for expression in animal cells, which was previously digested with XbaI and BamHI, were mixed and ligated by DNA Ligation Kit Ver. 2 (Takara Shuzo Co., Ltd.). The resulting plasmid was subjected to transformation into. E. coli JM109 competent cells (Takara Shuzo Co., Ltd.) to obtain plasmid pCKR5.
CHO-K1 cells were cultured in a 750-ml tissue culture flask (Becton, Dickinson and Company.) using. Ham F12 medium (NIHON PHARMACEUTICAL CO., LTD.) containing 10% fetal bovine serum (Lifetech Oriental) and were collected using 0.5 g/L trypsin-0.2 g/L EDTA (Lifetech Oriental). The cells were washed with PBS (Lifetech Oriental), centrifuged (1000 rpm, 5 minutes), and suspended in PBS. The DNA was introduced into the cells using a Gene Pulser (Bio-Rad Laboratories, Inc.) under the following conditions. Namely, 8×10^6 cells and 10 μg of plasmid pCKR5 for expression of human CCR5 were placed in a cuvette having a 0.4-cm gap, and electroporation was carried out with a voltage 0.25 kV and 960 μF of capacitance. Then, the cells were transferred into Ham's. F12 medium containing 10% fetal bovine serum, and incubated for 24 hours. The cells were collected, centrifuged, and suspended in Ham' F12 medium containing 10% fetal bovine serum and Geneticin (Lifetech Oriental) at a concentration of 500 μg/ml. The suspension of cells was diluted to a concentration of 10^4 cells/ml, and was inoculated onto 96-well plate (Becton Dickinson), to obtain Geneticin-resistant strain.
Then, resulting. Geneticin-resistant strain were cultured on 96-well plate (Becton Dickinson), and CCR5-expressing cells were selected from the resistant cells. Namely, in an assay buffer, (Ham's F12 medium containing 0.5% BSA, and 20 mM HEPES (Wako Pure Chemical Ind., pH 7.2)) to which was added […][125I]-RANTES (Amersham) as a ligand, the cells were subjected to a binding reaction at room temperature for 40 minutes. Wells containing the cells were washed with ice-cooled PBS, and 50 μl/well of 1M NaOH was added and stirred. The cells to which the ligand was bound specifically, i.e., CCR5/CHO cells, were selected by measurement of radioactivity using a […].
The CCR5/CHO cells were inoculated onto 96-well microplate at a concentration of 5×10^4 cells/well, and were cultured for 24 hours. After removal of the medium by aspiration, to each well was added an assay buffer containing a test compound (1 μM), and [125I]/RANTES (Amersham) used as a ligand at a concentration of […]. […]

T1 sequence (P51681 whole entry): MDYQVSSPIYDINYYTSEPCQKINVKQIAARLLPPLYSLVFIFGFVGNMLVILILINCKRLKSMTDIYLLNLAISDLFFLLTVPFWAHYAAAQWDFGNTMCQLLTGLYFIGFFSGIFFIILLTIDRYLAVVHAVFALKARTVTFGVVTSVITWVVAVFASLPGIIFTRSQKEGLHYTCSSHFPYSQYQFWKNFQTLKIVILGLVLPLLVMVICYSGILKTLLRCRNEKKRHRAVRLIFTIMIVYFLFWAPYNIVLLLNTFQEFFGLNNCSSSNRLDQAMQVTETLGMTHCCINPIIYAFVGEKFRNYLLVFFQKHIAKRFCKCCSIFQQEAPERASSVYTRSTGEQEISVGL

Row | Compound | inhibition at 1 µM [%]
1 | CCCCOCCOc1ccc(-c2ccc3c(c2)C=C(C(=O)Nc2ccc(SCc4nncn4CCC)c(C)c2)CCN3CC(C)C)cc1 [Compound 40, 7-[4-(2-butoxyethoxy)phenyl]-1-isobutyl-N-[3-methyl-4-[(4-propyl-4H-1,2,4-triazol-3-yl)methylthio]phenyl]-2,3-dihydro-1H-1-benzazepine-4-carboxamide] | 90
2 | CCCCOCCOc1ccc(-c2ccc3c(c2)C=C(C(=O)Nc2ccc([S+]([O-])Cc4cncn4CCC)cc2)CCN3CCC)cc1 (stereo not shown) [Compound 375, 7-[4-(2-butoxyethoxy)phenyl]-1-propyl-N-[4-[[[1-propylimidazol-5-yl]methyl]sulfinyl]phenyl]-2,3-dihydro-1-benzazepine-4-carboxamide] | 92
3 | CCCCOCCOc1ccc(-c2ccc3c(c2)C=C(C(=O)Nc2ccc(OCc4nncn4CCC)cc2)CCN3CC(C)C)cc1 [Compound 26, 7-[4-(2-butoxyethoxy)phenyl]-1-isobutyl-N-[4-[(4-propyl-4H-1,2,4-triazol-3-yl)methoxy]phenyl]-2,3-dihydro-1H-1-benzazepine-4-carboxamide] | 97
4 | CCCCOCCOc1ccc(-c2ccc3c(c2)C=C(C(=O)Nc2ccc([S+]([O-])Cc4cncn4CCOC)cc2)CCN3CC(C)C)cc1 (stereo not shown) [Compound 308, 7-[4-(2-butoxyethoxy)phenyl]-1-isobutyl-N-[4-[[[1-(2-methoxyethyl)imidazol-5-yl]methyl]sulfinyl]phenyl]-2,3-dihydro-1-benzazepine-4-carboxamide] | 100
5 | CCCCOCCOc1ccc(-c2ccc3c(c2)C=C(C(=O)Nc2ccc([S+]([O-])Cc4nccn4CCOC(C)=O)cc2)CCN3CC(C)C)cc1 (stereo not shown) [Compound 411, [2-[[[4-[[[7-[4-(2-butoxyethoxy)phenyl]-1-isobutyl-2,3-dihydro-1H-1-benzazepin-4-yl]carbonyl]amino]phenyl]sulfinyl]methyl]-1H-imidazol-1-yl]ethyl acetate] | 100
6 | CCCCOCCOc1ccc(-c2ccc3c(c2)C=C(C(=O)Nc2ccc(C(O)c4cccc[n+]4[O-])c(C(F)(F)F)c2)CCN3CCC)cc1 (stereo not shown) [Compound 13, 7-[4-(2-butoxyethoxy)phenyl]-N-[4-[hydroxy(1-oxidopyridin-2-yl)methyl]-3-trifluoromethylphenyl]-1-propyl-2,3-dihydro-1H-1-benzazepine-4-carboxamide] | 100
7 | CCCCOCCOc1ccc(-c2ccc3c(c2)C=C(C(=O)Nc2ccc(SCCn4cnnc4)cc2)CCN3CC(C)C)cc1 [Compound 154, 7-[4-(2-butoxyethoxy)phenyl]-N-[4-(4H-1,2,4-triazol-4-ylethylthio)phenyl]-1-isobutyl-2,3-dihydro-1H-benzazepine-4-carboxamide] | 100
8 | CCCCOCCOc1ccc(-c2ccc3c(c2)C=C(C(=O)Nc2ccc([S+]([O-])Cc4cncn4CCOC(C)=O)cc2)CCN3CC(C)C)cc1 (stereo not shown) [Compound 427, [5-[[[4-[[[7-[4-(2-butoxyethoxy)phenyl]-1-isobutyl-2,3-dihydro-1H-1-benzazepin-4-yl]carbonyl]amino]phenyl]sulfinyl]methyl]-1H-imidazol-1-yl]ethyl acetate] | 100
9 | CCCCOCCOc1ccc(-c2ccc3c(c2)C=C(C(=O)Nc2ccc4nc([S+]([O-])Cc5cncn5CCC)[nH]c4c2)CCN3CC(C)C)cc1 (stereo not shown) [Compound 313, 7-[4-(2-butoxyethoxy)phenyl]-1-isobutyl-N-[2-[[(1-propylimidazol-5-yl)methyl]sulfinyl]benzimidazol-5-yl]-2,3-dihydro-1-benzazepine-4-carboxamide] | 95
10 | CCCCOCCOc1ccc(-c2ccc3c(c2)C=C(C(=O)Nc2ccc(CSc4nncn4C)cc2)CCN3CC(C)C)cc1 [Compound 117, 7-[4-(2-butoxyethoxy)phenyl]-N-[4-(4-methyl-4H-1,2,4-triazol-3-ylthiomethyl)phenyl]-1-isobutyl-2,3-dihydro-1H-1-benzazepine-4-carboxamide] | 95
11 | CCCCOCCOc1ccc(-c2ccc3c(c2)C=C(C(=O)Nc2ccc(SCc4nncn4C)cc2)CCN3CC(C)C)cc1 [Compound 130, 7-[4-(2-butoxyethoxy)phenyl]-N-[4-(4-methyl-4H-1,2,4-triazol-3-ylmethylthio)phenyl]-1-isobutyl-2,3-dihydro-1H-1-benzazepine-4-carboxamide] | 100
12 | CCCCOCCOc1ccc(-c2ccc3c(c2)C=C(C(=O)Nc2ccc([S+]([O-])Cc4cncn4CCC)cc2)CCN3CC(C)C)cc1 (stereo not shown) [Compound 371, 7-[4-(2-butoxyethoxy)phenyl]-1-isobutyl-N-[4-[[[1-propylimidazol-5-yl]methyl]sulfinyl]phenyl]-2,3-dihydro-1-benzazepine-4-carboxamide] | 100
13 | CCCCOCCOc1ccc(-c2ccc3c(c2)C=C(C(=O)Nc2ccc(S(=O)(=O)Cc4nccn4CCCC(=O)NC)cc2)CCN3CC(C)C)cc1 [Compound 425, 7-[4-(2-butoxyethoxy)phenyl]-N-[4-[[[1-[4-(methylamino)-4-oxobutyl]-1H-imidazol-2-yl]methyl]sulfonyl]phenyl]-1-isobutyl-2,3-dihydro-1H-1-benzazepine-4-carboxamide] | 100
14 | CCCCOCCOc1ccc(-c2ccc3c(c2)C=C(C(=O)Nc2ccc([S+]([O-])Cc4nccn4C4CC4)cc2)CCN3CC(C)C)cc1 (stereo not shown) [Compound 367, 7-[4-(2-butoxyethoxy)phenyl]-N-[4-[[[1-cyclopropylimidazol-2-yl]methyl]sulfinyl]phenyl]-1-isobutyl-2,3-dihydro-1-benzazepine-4-carboxamide] | 96
15 | CCCCOCCOc1ccc(-c2ccc3c(c2)C=C(C(=O)Nc2ccc([S+]([O-])Cc4cccnc4C)nc2)CCN3CC(C)C)cc1 (stereo not shown) [Compound 272, 7-[4-(2-butoxyethoxy)phenyl]-1-isobutyl-N-[6-[[(2-methyl-3-pyridinyl)methyl]sulfinyl]-3-pyridinyl]-2,3-dihydro-1-benzazepine-4-carboxamide] | 98

same assay, conditions: test compound 1 μM, [125I]-RANTES as ligand, room temperature, 40 minutes

Row | Compound | Binding Inhibitory Ratio (%)
16 | CCCCOCCOc1ccc(-c2ccc3c(c2)C=C(C(=O)Nc2ccc([S+]([O-])Cc4cncn4CCC)cc2)CCN3CCC)cc1 (single isomer, unassigned; (-)) [Compound 378, (−)-7-[4-(2-butoxyethoxy)phenyl]-1-propyl-N-[4-[[[1-propylimidazol-5-yl]methyl]sulfinyl]phenyl]-2,3-dihydro-1-benzazepine-4-carboxamide] | 87
17 | CCCCOCCOc1ccc(-c2ccc3c(c2)C=C(C(=O)Nc2ccc([S+]([O-])Cc4nccn4CCCO)cc2)CCN3CC(C)C)cc1 (stereo not shown) [Compound 437] | 100
18 | C#CCn1cncc1C[S+]([O-])c1ccc(NC(=O)C2=Cc3cc(-c4ccc(OCCOCCCC)cc4)ccc3N(CC(C)C)CC2)cc1 (stereo not shown) [Compound 443, 7-[4-(2-butoxyethoxy)phenyl]-1-isobutyl-N-[4-[[(1-(2-propin-1-yl)imidazol-5-yl)methyl]sulfinyl]phenyl]-2,3-dihydro-1H-1-benzazepine-4-carboxamide] | 100

test system: not given; test: not given; settings: not given

Row | Compound | melting point [°C]
19 | CCCCOCCOc1ccc(-c2ccc3c(c2)C=C(C(=O)Nc2ccc(SCc4nncn4CCC)c(C)c2)CCN3CC(C)C)cc1 [Compound 40, 7-[4-(2-butoxyethoxy)phenyl]-1-isobutyl-N-[3-methyl-4-[(4-propyl-4H-1,2,4-triazol-3-yl)methylthio]phenyl]-2,3-dihydro-1H-1-benzazepine-4-carboxamide] | 104 to 107
